Laboratory results taken from ChEMBL document CHEMBL3137667, “[Drug-induced liver injury; fourteenth updated edition of the bibliographic database of liver injuries and related drugs]” (Gastroenterol Clin Biol, 2004).

Legend:
[1] = human
[2] = Highest frequency of moderate liver toxicity observed during clinical trials, expressed as a percentage. [column '% BIOL' in source]; conditions: human
[3] = human, serum
[4] = human; remark: listed apart in the source
[5] = human, serum; remark: listed apart in the source
[6] = Highest frequency of acute liver toxicity observed during clinical trials, expressed as a percentage. [column '% AIGUE' in source]; conditions: human
[7] = human; remark: listed apart in the source
[8] = human; remark: listed apart in the source
[9] = human; remark: listed apart in the source
[10] = human; remark: listed apart in the source
[11] = human; remark: listed apart in the source
[12] = human; remark: listed apart in the source
[13] = human, serum, 4383 h
[14] = human; remark: listed apart in the source
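Wherever Hepatotoxicity (association with vascular disease) is given: count of indexed literature references reporting vascular liver injury in humans, e.g. peliosis hepatitis, hepatic veno-occlusive disease or Budd-Chiari syndrome.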
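Wherever Hepatotoxicity (benign tumour) is given: value is a count of indexed literature references citing a benign tumour confirmed by histopathology.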
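Wherever Hepatotoxicity (choleostasis) is given: human cholestatic liver injury, shown by histopathology or by peak ALT or AST elevation over alkaline phosphatase ratio below 2, value counts indexed literature reports.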
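Wherever Hepatotoxicity (chronic liver disease) is given: chronic liver injury confirmed by histopathology or persistently raised serum aminotransferase activity beyond 6 months, value given as the count of indexed literature references.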
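Wherever Hepatotoxicity (cirrhosis) is given: value is a count of indexed literature references reporting cirrhosis confirmed by histopathology.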
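Wherever Hepatotoxicity (cytolytic) is given: human cytolytic liver injury, shown by histopathology or by a ratio above 5 of peak ALT or AST elevation to alkaline phosphatase elevation, value counts indexed references.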
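Wherever Hepatotoxicity (granulomatous hepatitis) is given: value is a count of indexed literature references reporting granulomatous liver disease confirmed by histopathology.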
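Wherever Hepatotoxicity (malignant tumour) is given: malignant tumour confirmed by histopathology, value gives the count of indexed literature references reporting it.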
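Wherever Hepatotoxicity (severe hepatitis) is given: human clinical data: severe hepatitis, meaning potentially life-threatening liver failure or clinically observed cases, the value counts how many indexed literature references report it.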
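Wherever Hepatotoxicity (steatosis) is given: steatosis confirmed by histopathology, value is the count of indexed references.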

O=C(O)Cc1ccccc1Oc1ccc(Cl)cc1Cl [FENCLOFENAC]
Hepatotoxicity (steatosis) [1]: 0 | Hepatotoxicity (moderate) [2]: 1% | Hepatotoxicity (acute) [3]: 0 | Hepatotoxicity (cytolytic) [4]: 0 | Hepatotoxicity (moderate) [5]: 1 | Hepatotoxicity (acute) [6]: 0% | Hepatotoxicity (granulomatous hepatitis) [7]: 0 | Hepatotoxicity (severe hepatitis) [8]: 0 | Hepatotoxicity (choleostasis) [9]: 0 | Hepatotoxicity (association with vascular disease) [10]: 0 | Hepatotoxicity (cirrhosis) [11]: 0 | Hepatotoxicity (benign tumour) [12]: 0 | Hepatotoxicity (chronic liver disease) [13]: 0 | Hepatotoxicity (malignant tumour) [14]: 0

CC(C)(C)NC(=O)[C@H]1CC[C@H]2[C@@H]3CC[C@H]4NC(=O)C=C[C@]4(C)[C@H]3CC[C@]12C [FINASTERIDE]
Hepatotoxicity (steatosis) [1]: 0 | Hepatotoxicity (moderate) [2]: 9% | Hepatotoxicity (acute) [3]: 0 | Hepatotoxicity (cytolytic) [4]: 0 | Hepatotoxicity (moderate) [5]: 1 | Hepatotoxicity (acute) [6]: 0% | Hepatotoxicity (granulomatous hepatitis) [7]: 0 | Hepatotoxicity (severe hepatitis) [8]: 0 | Hepatotoxicity (choleostasis) [9]: 0 | Hepatotoxicity (association with vascular disease) [10]: 0 | Hepatotoxicity (cirrhosis) [11]: 0 | Hepatotoxicity (benign tumour) [12]: 0 | Hepatotoxicity (chronic liver disease) [13]: 0 | Hepatotoxicity (malignant tumour) [14]: 0

CN1CCN(c2c(F)cc3c(=O)c(C(=O)O)cn(CCF)c3c2F)CC1 [FLEROXACIN]
Hepatotoxicity (steatosis) [1]: 0 | Hepatotoxicity (moderate) [2]: 8.3% | Hepatotoxicity (acute) [3]: 0 | Hepatotoxicity (cytolytic) [4]: 0 | Hepatotoxicity (moderate) [5]: 13 | Hepatotoxicity (acute) [6]: 0% | Hepatotoxicity (granulomatous hepatitis) [7]: 0 | Hepatotoxicity (severe hepatitis) [8]: 0 | Hepatotoxicity (choleostasis) [9]: 0 | Hepatotoxicity (association with vascular disease) [10]: 0 | Hepatotoxicity (cirrhosis) [11]: 0 | Hepatotoxicity (benign tumour) [12]: 0 | Hepatotoxicity (chronic liver disease) [13]: 0 | Hepatotoxicity (malignant tumour) [14]: 0

CC(C)(CNC(N)=O)NCC(O)COC(=O)c1ccccc1F (stereo not drawn) [FLESTOLOL]
Hepatotoxicity (steatosis) [1]: 0 | Hepatotoxicity (moderate) [2]: 6.7% | Hepatotoxicity (acute) [3]: 0 | Hepatotoxicity (cytolytic) [4]: 0 | Hepatotoxicity (moderate) [5]: 2 | Hepatotoxicity (acute) [6]: 0% | Hepatotoxicity (granulomatous hepatitis) [7]: 0 | Hepatotoxicity (severe hepatitis) [8]: 0 | Hepatotoxicity (choleostasis) [9]: 0 | Hepatotoxicity (association with vascular disease) [10]: 0 | Hepatotoxicity (cirrhosis) [11]: 0 | Hepatotoxicity (benign tumour) [12]: 0 | Hepatotoxicity (chronic liver disease) [13]: 0 | Hepatotoxicity (malignant tumour) [14]: 0

COC(=O)Nc1nc2cc(C(=O)c3ccc(F)cc3)ccc2[nH]1 [FLUBENDAZOLE]
Hepatotoxicity (steatosis) [1]: 0 | Hepatotoxicity (moderate) [2]: 6% | Hepatotoxicity (acute) [3]: 1 | Hepatotoxicity (cytolytic) [4]: 1 | Hepatotoxicity (moderate) [5]: 1 | Hepatotoxicity (acute) [6]: 0% | Hepatotoxicity (granulomatous hepatitis) [7]: 0 | Hepatotoxicity (severe hepatitis) [8]: 0 | Hepatotoxicity (choleostasis) [9]: 0 | Hepatotoxicity (association with vascular disease) [10]: 0 | Hepatotoxicity (cirrhosis) [11]: 0 | Hepatotoxicity (benign tumour) [12]: 0 | Hepatotoxicity (chronic liver disease) [13]: 0 | Hepatotoxicity (malignant tumour) [14]: 0

O=C(O)c1ccccc1Nc1cccc(C(F)(F)F)c1 [FLUFENAMIC ACID]
Hepatotoxicity (steatosis) [1]: 0 | Hepatotoxicity (moderate) [2]: 0% | Hepatotoxicity (acute) [3]: 0 | Hepatotoxicity (cytolytic) [4]: 0 | Hepatotoxicity (moderate) [5]: 1 | Hepatotoxicity (acute) [6]: 0% | Hepatotoxicity (granulomatous hepatitis) [7]: 0 | Hepatotoxicity (severe hepatitis) [8]: 0 | Hepatotoxicity (choleostasis) [9]: 0 | Hepatotoxicity (association with vascular disease) [10]: 0 | Hepatotoxicity (cirrhosis) [11]: 0 | Hepatotoxicity (benign tumour) [12]: 0 | Hepatotoxicity (chronic liver disease) [13]: 0 | Hepatotoxicity (malignant tumour) [14]: 0

Fc1ccc(C(c2ccc(F)cc2)N2CCN(C/C=C/c3ccccc3)CC2)cc1 [FLUNARIZINE]
Hepatotoxicity (steatosis) [1]: 0 | Hepatotoxicity (moderate) [2]: 1.4% | Hepatotoxicity (acute) [3]: 0 | Hepatotoxicity (cytolytic) [4]: 0 | Hepatotoxicity (moderate) [5]: 1 | Hepatotoxicity (acute) [6]: 0% | Hepatotoxicity (granulomatous hepatitis) [7]: 0 | Hepatotoxicity (severe hepatitis) [8]: 0 | Hepatotoxicity (choleostasis) [9]: 0 | Hepatotoxicity (association with vascular disease) [10]: 0 | Hepatotoxicity (cirrhosis) [11]: 0 | Hepatotoxicity (benign tumour) [12]: 0 | Hepatotoxicity (chronic liver disease) [13]: 0 | Hepatotoxicity (malignant tumour) [14]: 0

C[C@H](C(=O)O)c1ccc2oc(-c3ccc(F)cc3)nc2c1 [FLUNOXAPROFEN]
Hepatotoxicity (steatosis) [1]: 0 | Hepatotoxicity (moderate) [2]: 0% | Hepatotoxicity (acute) [3]: 0 | Hepatotoxicity (cytolytic) [4]: 0 | Hepatotoxicity (moderate) [5]: 2 | Hepatotoxicity (acute) [6]: 0% | Hepatotoxicity (granulomatous hepatitis) [7]: 0 | Hepatotoxicity (severe hepatitis) [8]: 0 | Hepatotoxicity (choleostasis) [9]: 0 | Hepatotoxicity (association with vascular disease) [10]: 0 | Hepatotoxicity (cirrhosis) [11]: 0 | Hepatotoxicity (benign tumour) [12]: 0 | Hepatotoxicity (chronic liver disease) [13]: 0 | Hepatotoxicity (malignant tumour) [14]: 0

CN1CCN(C2=Nc3cc(F)ccc3Cc3ccccc32)CC1 [FLUPERLAPINE]
Hepatotoxicity (steatosis) [1]: 0 | Hepatotoxicity (moderate) [2]: 23% | Hepatotoxicity (acute) [3]: 0 | Hepatotoxicity (cytolytic) [4]: 0 | Hepatotoxicity (moderate) [5]: 4 | Hepatotoxicity (acute) [6]: 0% | Hepatotoxicity (granulomatous hepatitis) [7]: 0 | Hepatotoxicity (severe hepatitis) [8]: 0 | Hepatotoxicity (choleostasis) [9]: 0 | Hepatotoxicity (association with vascular disease) [10]: 0 | Hepatotoxicity (cirrhosis) [11]: 0 | Hepatotoxicity (benign tumour) [12]: 0 | Hepatotoxicity (chronic liver disease) [13]: 0 | Hepatotoxicity (malignant tumour) [14]: 0

CCOC(=O)Nc1ccc(NCc2ccc(F)cc2)nc1N [FLUPIRTINE]
Hepatotoxicity (steatosis) [1]: 0 | Hepatotoxicity (moderate) [2]: 10% | Hepatotoxicity (acute) [3]: 0 | Hepatotoxicity (cytolytic) [4]: 0 | Hepatotoxicity (moderate) [5]: 2 | Hepatotoxicity (acute) [6]: 0% | Hepatotoxicity (granulomatous hepatitis) [7]: 0 | Hepatotoxicity (severe hepatitis) [8]: 0 | Hepatotoxicity (choleostasis) [9]: 0 | Hepatotoxicity (association with vascular disease) [10]: 0 | Hepatotoxicity (cirrhosis) [11]: 0 | Hepatotoxicity (benign tumour) [12]: 0 | Hepatotoxicity (chronic liver disease) [13]: 0 | Hepatotoxicity (malignant tumour) [14]: 0

CC[C@H]1OC(=O)[C@H](C)[C@@H](O[C@H]2C[C@@](C)(OC)[C@@H](O)[C@H](C)O2)[C@H](C)[C@@H](O[C@@H]2O[C@H](C)C[C@H](N(C)C)[C@H]2O)[C@](C)(O)C[C@](C)(F)C(=O)[C@H](C)[C@@H](O)[C@]1(C)O [FLURITHROMYCIN]
Hepatotoxicity (steatosis) [1]: 0 | Hepatotoxicity (moderate) [2]: 3.6% | Hepatotoxicity (acute) [3]: 0 | Hepatotoxicity (cytolytic) [4]: 0 | Hepatotoxicity (moderate) [5]: 1 | Hepatotoxicity (acute) [6]: 0% | Hepatotoxicity (granulomatous hepatitis) [7]: 0 | Hepatotoxicity (severe hepatitis) [8]: 0 | Hepatotoxicity (choleostasis) [9]: 0 | Hepatotoxicity (association with vascular disease) [10]: 0 | Hepatotoxicity (cirrhosis) [11]: 0 | Hepatotoxicity (benign tumour) [12]: 0 | Hepatotoxicity (chronic liver disease) [13]: 0 | Hepatotoxicity (malignant tumour) [14]: 0

O=C(O)P(=O)(O)O [FOSCARNET]
Hepatotoxicity (steatosis) [1]: 0 | Hepatotoxicity (moderate) [2]: 12% | Hepatotoxicity (acute) [3]: 0 | Hepatotoxicity (cytolytic) [4]: 0 | Hepatotoxicity (moderate) [5]: 2 | Hepatotoxicity (acute) [6]: 0% | Hepatotoxicity (granulomatous hepatitis) [7]: 0 | Hepatotoxicity (severe hepatitis) [8]: 0 | Hepatotoxicity (choleostasis) [9]: 0 | Hepatotoxicity (association with vascular disease) [10]: 0 | Hepatotoxicity (cirrhosis) [11]: 0 | Hepatotoxicity (benign tumour) [12]: 0 | Hepatotoxicity (chronic liver disease) [13]: 0 | Hepatotoxicity (malignant tumour) [14]: 0
